From patent publication US20260000695A1, “SOLID AND ORAL ETOPOSIDE TONIRIBATE COMPOSITIONS” (CELLACT PHARMA GMBH, priority 2022, published 2026)

Columns and labels:
[1] = Solubility and pH stability of the API; format: physicochemical
[2] = Table 9A: HPLC peaks over storage time, sample and storage not described; format: physicochemical
[3] = API; cited from earlier work

solubility in water or aqueous buffer systems [1]: practically insoluble | Peak %, CAP 7.1 RT: 20.25 ([2]; 5 days): 98.83% | Peak %, RRT:0.51 RT:10.43 ([2]; 5 days): 0.09% | Peak %, RRT: 0.54 RT: 10.89 (Etoposide) ([2]; 5 days): 0.17% | Peak %, RRT: 0.95 RT: 19.13 ([2]; 5 days): 0.09% | Peak %, RRT: 0.97 RT: 19.67 ([2]; 5 days): 0.67% | Peak %, RRT: 1.10 RT: 22.32 ([2]; 5 days): 0.04% | Peak %, RRT: 1.15 RT: 23.46 ([2]; 5 days): 0.07% | Peak %, RRT: 1.19 RT: 24.11 ([2]; 5 days): 0.04% | Peak %, CAP 7.1 RT: 20.25 ([2]; 12 days): 98.58% | Peak %, RRT:0.51 RT:10.43 ([2]; 12 days): 0.09% | Peak %, RRT: 0.54 RT: 10.89 (Etoposide) ([2]; 12 days): 0.22% | Peak %, RRT: 0.95 RT: 19.13 ([2]; 12 days): 0.09% | Peak %, RRT: 0.97 RT: 19.67 ([2]; 12 days): 0.87% | Peak %, RRT: 1.10 RT: 22.32 ([2]; 12 days): 0.03% | Peak %, RRT: 1.15 RT: 23.46 ([2]; 12 days): 0.07% | Peak %, RRT: 1.19 RT: 24.11 ([2]; 12 days): 0.04% | Peak %, CAP 7.1 RT: 20.25 ([2]; 17 days): 98.18% | Peak %, RRT:0.51 RT:10.43 ([2]; 17 days): 0.17% | Peak %, RRT: 0.54 RT: 10.89 (Etoposide) ([2]; 17 days): 0.33% | Peak %, RRT: 0.95 RT: 19.13 ([2]; 17 days): 0.10% | Peak %, RRT: 0.97 RT: 19.67 ([2]; 17 days): 1.10% | Peak %, RRT: 1.10 RT: 22.32 ([2]; 17 days): 0.04% | Peak %, RRT: 1.15 RT: 23.46 ([2]; 17 days): 0.04% | Peak %, RRT: 1.19 RT: 24.11 ([2]; 17 days): 0.04% | Peak %, CAP 7.1 RT: 20.25 ([2]; initial): 99.21% | Peak %, RRT: 0.54 RT: 10.89 (Etoposide) ([2]; initial): 0.10% | Peak %, RRT: 0.95 RT: 19.13 ([2]; initial): 0.10% | Peak %, RRT: 0.97 RT: 19.67 ([2]; initial): 0.48% | Peak %, RRT: 1.10 RT: 22.32 ([2]; initial): 0.05% | Peak %, RRT: 1.15 RT: 23.46 ([2]; initial): 0.04% | Peak %, RRT: 1.19 RT: 24.11 ([2]; initial): 0.03%
SMILES: COc1cc([C@@H]2c3cc4c(cc3[C@@H](O[C@@H]3O[C@@H]5CO[C@@H](C)O[C@H]5[C@@H](O)[C@H]3O)[C@H]3COC(=O)[C@H]23)OCO4)cc(OC)c1OC(=O)OCC1COC(C)(C)O1 (stereo partly shown) [CAP 7.1, Etoposide toniribate]
solubility in water [3]: poorly soluble | stability at acidic and basic pH [3]: unstable
